Columns and labels:
Experiment in all cases: relative viability (nuclei count vs DMSO), 5 days (fraction); higher = more cells survive
201T = tested on: 201T
Summary of the method: (§1)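 Lung cancer cell lines in 1536-well plates got either a single drug or a fixed anchor-drug dose together with five library-drug doses (not always all listed) in √10 steps, by pin tool, on the day after seeding. Nuclei were counted after 5 days, and relative viability is the treated-to-vehicle ratio of nuclei counts. Values are medians of duplicate plates.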

BEN = tested on: BEN
Summary of the method: as §1

CAL-12T = tested on: CAL-12T
Summary of the method: as §1

COR-L 105 = tested on: COR-L 105
Summary of the method: as §1

COR-L23 = tested on: COR-L23
Summary of the method: as §1

EKVX = tested on: EKVX
Summary of the method: as §1

HARA = tested on: HARA
Summary of the method: as §1

HCC-366 = tested on: HCC-366
Summary of the method: as §1

LK-2 = tested on: LK-2
Summary of the method: as §1

LU99A = tested on: LU99A
Summary of the method: as §1

NCI-H1437 = tested on: NCI-H1437
Summary of the method: as §1

NCI-H1650 = tested on: NCI-H1650
Summary of the method: as §1

NCI-H1666 = tested on: NCI-H1666
Summary of the method: as §1

NCI-H2009 = tested on: NCI-H2009
Summary of the method: as §1

NCI-H2170 = tested on: NCI-H2170
Summary of the method: as §1

NCI-H3122 = tested on: NCI-H3122
Summary of the method: as §1

NCI-H441 = tested on: NCI-H441
Summary of the method: as §1

NCI-H661 = tested on: NCI-H661
Summary of the method: as §1

NCI-H838 = tested on: NCI-H838
Summary of the method: as §1

PC-14 = tested on: PC-14
Summary of the method: as §1

SW 900 = tested on: SW 900
Summary of the method: as §1

CC1(C)CCC(c2ccc(Cl)cc2)=C(CN2CCN(c3ccc(C(=O)NS(=O)(=O)c4ccc(N[C@H](CCN5CCOCC5)CSc5ccccc5)c(S(=O)(=O)C(F)(F)F)c4)cc3)CC2)C1 [Navitoclax] + Nc1nc2[nH]cc(CCc3ccc(C(=O)N[C@@H](CCC(=O)O)C(=O)O)cc3)c2c(=O)[nH]1 [Pemetrexed] (partner 0.2 µM)
relative viability (201T; first compound 0.005 µM): 0.299 | relative viability (201T; first compound 0.01581 µM): 0.31 | relative viability (201T; first compound 0.05 µM): 0.34 | relative viability (201T; first compound 0.1581 µM): 0.321 | relative viability (201T; first compound 0.5 µM): 0.357 | relative viability (BEN; first compound 0.005 µM): 0.781 | relative viability (BEN; first compound 0.01581 µM): 0.841 | relative viability (BEN; first compound 0.05 µM): 0.74 | relative viability (BEN; first compound 0.1581 µM): 0.803 | relative viability (BEN; first compound 0.5 µM): 0.418 | relative viability (CAL-12T; first compound 0.005 µM): 1.23 | relative viability (CAL-12T; first compound 0.01581 µM): 1.34 | relative viability (CAL-12T; first compound 0.05 µM): 1.23 | relative viability (CAL-12T; first compound 0.1581 µM): 1.23 | relative viability (CAL-12T; first compound 0.5 µM): 1.25 | relative viability (COR-L 105; first compound 0.005 µM): 0.979 | relative viability (COR-L 105; first compound 0.01581 µM): 1.35 | relative viability (COR-L 105; first compound 0.05 µM): 0.921 | relative viability (COR-L 105; first compound 0.1581 µM): 1.13 | relative viability (COR-L 105; first compound 0.5 µM): 1.17 | relative viability (COR-L23; first compound 0.005 µM): 0.208 | relative viability (COR-L23; first compound 0.01581 µM): 0.188 | relative viability (COR-L23; first compound 0.05 µM): 0.221 | relative viability (COR-L23; first compound 0.1581 µM): 0.179 | relative viability (COR-L23; first compound 0.5 µM): 0.201 | relative viability (EKVX; first compound 0.005 µM): 0.433 | relative viability (EKVX; first compound 0.01581 µM): 0.389 | relative viability (EKVX; first compound 0.05 µM): 0.4 | relative viability (EKVX; first compound 0.1581 µM): 0.387 | relative viability (EKVX; first compound 0.5 µM): 0.366 | relative viability (HARA; first compound 0.005 µM): 0.189 | relative viability (HARA; first compound 0.01581 µM): 0.232 | relative viability (HARA; first compound 0.05 µM): 0.255 | relative viability (HARA; first compound 0.1581 µM): 0.236 | relative viability (HARA; first compound 0.5 µM): 0.218 | relative viability (HCC-366; first compound 0.005 µM): 0.136 | relative viability (HCC-366; first compound 0.01581 µM): 0.167 | relative viability (HCC-366; first compound 0.1581 µM): 0.175 | relative viability (HCC-366; first compound 0.5 µM): 0.145 | relative viability (LK-2; first compound 0.005 µM): 0.35 | relative viability (LK-2; first compound 0.01581 µM): 0.244 | relative viability (LK-2; first compound 0.05 µM): 0.281 | relative viability (LK-2; first compound 0.1581 µM): 0.332 | relative viability (LK-2; first compound 0.5 µM): 0.316 | relative viability (LU99A; first compound 0.005 µM): 0.202 | relative viability (LU99A; first compound 0.01581 µM): 0.205 | relative viability (LU99A; first compound 0.1581 µM): 0.196 | relative viability (LU99A; first compound 0.5 µM): 0.167 | relative viability (NCI-H1437; first compound 0.005 µM): 0.287 | relative viability (NCI-H1437; first compound 0.01581 µM): 0.336 | relative viability (NCI-H1437; first compound 0.05 µM): 0.282 | relative viability (NCI-H1437; first compound 0.1581 µM): 0.311 | relative viability (NCI-H1437; first compound 0.5 µM): 0.356 | relative viability (NCI-H1650; first compound 0.005 µM): 0.365 | relative viability (NCI-H1650; first compound 0.01581 µM): 0.412 | relative viability (NCI-H1650; first compound 0.05 µM): 0.298 | relative viability (NCI-H1650; first compound 0.1581 µM): 0.347 | relative viability (NCI-H1650; first compound 0.5 µM): 0.334 | relative viability (NCI-H1666; first compound 0.005 µM): 0.867 | relative viability (NCI-H1666; first compound 0.01581 µM): 0.964 | relative viability (NCI-H1666; first compound 0.05 µM): 0.836 | relative viability (NCI-H1666; first compound 0.1581 µM): 0.831 | relative viability (NCI-H1666; first compound 0.5 µM): 0.966 | relative viability (NCI-H2009; first compound 0.005 µM): 0.997 | relative viability (NCI-H2009; first compound 0.01581 µM): 1.03 | relative viability (NCI-H2009; first compound 0.05 µM): 1.03 | relative viability (NCI-H2009; first compound 0.1581 µM): 1.04 | relative viability (NCI-H2009; first compound 0.5 µM): 1.01 | relative viability (NCI-H2170; first compound 0.005 µM): 0.292 | relative viability (NCI-H2170; first compound 0.01581 µM): 0.272 | relative viability (NCI-H2170; first compound 0.05 µM): 0.273 | relative viability (NCI-H2170; first compound 0.1581 µM): 0.266 | relative viability (NCI-H2170; first compound 0.5 µM): 0.254 | relative viability (NCI-H3122; first compound 0.005 µM): 0.207 | relative viability (NCI-H3122; first compound 0.01581 µM): 0.176 | relative viability (NCI-H3122; first compound 0.05 µM): 0.211 | relative viability (NCI-H3122; first compound 0.1581 µM): 0.183 | relative viability (NCI-H3122; first compound 0.5 µM): 0.209 | relative viability (NCI-H441; first compound 0.005 µM): 0.238 | relative viability (NCI-H441; first compound 0.01581 µM): 0.24 | relative viability (NCI-H441; first compound 0.05 µM): 0.258 | relative viability (NCI-H441; first compound 0.1581 µM): 0.232 | relative viability (NCI-H441; first compound 0.5 µM): 0.296 | relative viability (NCI-H661; first compound 0.005 µM): 0.936 | relative viability (NCI-H661; first compound 0.01581 µM): 0.958 | relative viability (NCI-H661; first compound 0.05 µM): 0.9 | relative viability (NCI-H661; first compound 0.1581 µM): 0.883 | relative viability (NCI-H661; first compound 0.5 µM): 0.876 | relative viability (NCI-H838; first compound 0.005 µM): 0.242 | relative viability (NCI-H838; first compound 0.01581 µM): 0.254 | relative viability (NCI-H838; first compound 0.05 µM): 0.28 | relative viability (NCI-H838; first compound 0.1581 µM): 0.266 | relative viability (NCI-H838; first compound 0.5 µM): 0.244 | relative viability (PC-14; first compound 0.005 µM): 0.133 | relative viability (PC-14; first compound 0.01581 µM): 0.118 | relative viability (PC-14; first compound 0.05 µM): 0.136 | relative viability (PC-14; first compound 0.1581 µM): 0.108 | relative viability (PC-14; first compound 0.5 µM): 0.105 | relative viability (SW 900; first compound 0.005 µM): 0.471 | relative viability (SW 900; first compound 0.01581 µM): 0.476 | relative viability (SW 900; first compound 0.1581 µM): 0.452 | relative viability (SW 900; first compound 0.5 µM): 0.441

From the supplement of paper PMC10307832
